Measured values as given in article PMC12028158, “Synthesis and In Vitro Evaluation of the Anticancer Effect of Novel Phosphonium Vindoline Derivatives” (International Journal of Molecular Sciences, 2025).
Where two headings read alike, the source gives them in different places.

Assays:
Type in all cases: cell-based
CCRF-CEM = assay: NCI60 five-dose screen; conditions: Homo sapiens
OVCAR-8 = assay: NCI60 five-dose screen; conditions: Homo sapiens
UO-31 = assay: NCI60 five-dose screen; conditions: Homo sapiens
NCI-H322M = assay: NCI60 five-dose screen; conditions: Homo sapiens
HCC-2998 = assay: NCI60 one-dose screen; conditions: Homo sapiens
NCI-H226 = assay: NCI60 five-dose screen; conditions: Homo sapiens
HOP-62 = assay: NCI60 one-dose screen; conditions: Homo sapiens
Prostate Cancer panel = assay: NCI60 five-dose screen, panel mean; conditions: Homo sapiens
OVCAR-5 = assay: NCI60 five-dose screen; conditions: Homo sapiens
CNS Cancer panel = assay: NCI60 five-dose screen, panel mean; conditions: Homo sapiens
NCI/ADR-RES = assay: NCI60 one-dose screen; conditions: Homo sapiens, read-out: Growth percent
SW-620 [1] = assay: NCI60 five-dose screen; conditions: Homo sapiens
[2] = tested on: 60 human tumor cell lines (NCI60); assay: NCI60 one-dose screen, overall mean; conditions: Homo sapiens, read-out: Mean growth percent
RXF 393 = assay: NCI60 one-dose screen; conditions: Homo sapiens
SF-295 = assay: NCI60 one-dose screen; conditions: Homo sapiens
MDA-MB-231/ATCC = assay: NCI60 one-dose screen; conditions: Homo sapiens
ACHN = assay: NCI60 five-dose screen; conditions: Homo sapiens
MDA-MB-435 = assay: NCI60 one-dose screen; conditions: Homo sapiens
HS 578T = assay: NCI60 five-dose screen; conditions: Homo sapiens
COLO 205 = assay: NCI60 one-dose screen; conditions: Homo sapiens
T-47D = assay: NCI60 five-dose screen; conditions: Homo sapiens, T47D
SR = assay: NCI60 five-dose screen; conditions: Homo sapiens, Leukemia, five-dose, read-out: GI50
NCI-H23 = assay: NCI60 five-dose screen; conditions: Homo sapiens
SNB-75 = assay: NCI60 five-dose screen; conditions: Homo sapiens
SN12C = assay: NCI60 five-dose screen; conditions: Homo sapiens
MDA-MB-468 = assay: NCI60 one-dose screen; conditions: Homo sapiens
SNB-19 = assay: NCI60 five-dose screen; conditions: Homo sapiens
BT-549 = assay: NCI60 one-dose screen; conditions: Homo sapiens
HL-60(TB) = assay: NCI60 one-dose screen; conditions: Homo sapiens
DU-145 = assay: NCI60 five-dose screen; conditions: Homo sapiens
SF-268 = assay: NCI60 five-dose screen; conditions: Homo sapiens
MDA-MB231ATCC = assay: NCI60 five-dose screen; conditions: Homo sapiens, MDA-MB-231
SW-620 [3] = assay: NCI60 one-dose screen; conditions: Homo sapiens
HCT-116 = assay: NCI60 one-dose screen; conditions: Homo sapiens
SK-MEL-2 = assay: NCI60 five-dose screen; conditions: Homo sapiens
M14 = assay: NCI60 five-dose screen; conditions: Homo sapiens
[4] = tested on: 60 human tumor cell lines (NCI60); assay: NCI60 five-dose screen, overall mean
[5] = Renal Cancer, five-dose, read-out: GI50

For CC[C@]12C=CCN3CC[C@@]4(c5ccc(OC)cc5N(C)[C@H]4[C@@](O)(C(=O)OC)[C@@H]1OC(=O)CCC[P+](c1ccccc1)(c1ccccc1)c1ccccc1)[C@@H]32 [compound 3, reference compound], the GI50 (CCRF-CEM; Leukemia, five-dose, read-out: GI50) was 487 nM, the GI50 (OVCAR-8; OVCAR-8, Ovarian Cancer, five-dose, read-out: GI50) was 1270 nM and the GI50 (UO-31; UO-31, Renal Cancer, five-dose, read-out: GI50) was 10.8 µM. It also gave a GI50 (NCI-H322M; Non-small Cell Lung Cancer, five-dose, read-out: GI50) of 2330 nM, an activity at 10 µM (HCC-2998; HCC-2998, 10 μM, one-dose, read-out: Growth percent) of -22.5% and a GI50 (NCI-H226; NCI-H226, Non-small Cell Lung Cancer, five-dose, read-out: GI50) of 2040 nM. It also gave an activity at 10 µM (HOP-62; HOP-62, 10 μM, one-dose, read-out: Growth percent) of 2.56%, a GI50 (Prostate Cancer panel; mean over Prostate Cancer panel, read-out: Mean GI50) of 640 nM and a GI50 (OVCAR-5; OVCAR-5, Ovarian Cancer, five-dose, read-out: GI50) of 1200 nM. For the same molecule, the GI50 (CNS Cancer panel; mean over CNS Cancer panel, read-out: Mean GI50) was 760 nM, the activity at 10 µM (NCI/ADR-RES; 10 μM, one-dose) was 100% and the GI50 (SW-620 [1]; SW-620, Colon Cancer, five-dose, read-out: GI50) was 1200 nM. It also gave an activity at 10 µM ([2]; mean over 60 cell lines, 10 μM, one-dose) of 3.13%, an activity at 10 µM (RXF 393; RXF 393, 10 μM, one-dose, read-out: Growth percent) of 28.9% and an activity at 10 µM (SF-295; SF-295, 10 μM, one-dose, read-out: Growth percent) of 23.3%. The activity at 10 µM (MDA-MB-231/ATCC; MDA-MB-231/ATCC, 10 μM, one-dose, read-out: Growth percent) was 1.29%, the GI50 (ACHN; [5]) was 4.53 µM and the activity at 10 µM (MDA-MB-435; MDA-MB-435, 10 μM, one-dose, read-out: Growth percent) was -21.6%. For the same molecule, the GI50 (HS 578T; HS 578T, Breast Cancer, five-dose, read-out: GI50) was 1260 nM, the activity at 10 µM (COLO 205; COLO 205, 10 μM, one-dose, read-out: Growth percent) was -87.9% and the GI50 (T-47D; T-47D, Breast Cancer, five-dose, read-out: GI50) was 192 nM. The GI50 (SR) was 346 nM, the GI50 (NCI-H23; NCI-H23, Non-small Cell Lung Cancer, five-dose, read-out: GI50) was 971 nM and the GI50 (SNB-75; SNB-75, CNS Cancer, five-dose, read-out: GI50) was 750 nM. For the same molecule, the GI50 (SN12C; [5]) was 590 nM, the activity at 10 µM (MDA-MB-468; MDA-MB-468, 10 μM, one-dose, read-out: Growth percent) was -75.6% and the GI50 (SNB-19; SNB-19, SNB-19, CNS Cancer, five-dose, read-out: GI50) was 334 nM. The activity at 10 µM (BT-549; BT-549, 10 μM, one-dose, read-out: Growth percent) was 11%, the activity at 10 µM (HL-60(TB); HL-60(TB), 10 μM, one-dose, read-out: Growth percent) was -53.1% and the GI50 (DU-145; DU-145, Prostate Cancer, five-dose, read-out: GI50) was 1070 nM. For the same molecule, the GI50 (SF-268; SF-268, CNS Cancer, five-dose, read-out: GI50) was 975 nM, the GI50 (MDA-MB231ATCC; MDA-MB231ATCC, Breast Cancer, five-dose, read-out: GI50) was 406 nM and the activity at 10 µM (SW-620 [3]; SW-620, 10 μM, one-dose, read-out: Growth percent) was 17.4%. It also gave an activity at 10 µM (HCT-116; HCT-116, 10 μM, one-dose, read-out: Growth percent) of 8.72%, a GI50 (SK-MEL-2; SK-MEL-2, SK-MEL-2, Melanoma, five-dose, read-out: GI50) of 322 nM and a GI50 (M14; M14, Melanoma, five-dose, read-out: GI50) of 790 nM. For the same molecule, the GI50 ([4]; 60 cell, mean over all 60 cell lines, read-out: Mean GI50) was 1980 nM.
With CC[C@]12C=CCN3CC[C@@]4(c5ccc(OC)cc5N(C)[C@H]4[C@@](O)(C(=O)OC)[C@@H]1OC(=O)CCCC[P+](c1ccccc1)(c1ccccc1)c1ccccc1)[C@@H]32 [compound 4, reference compound] the GI50 (CCRF-CEM) was 697 nM, the GI50 (OVCAR-8; OVCAR-8) was 1740 nM and the GI50 (UO-31; UO-31) was 12.2 µM. The GI50 (NCI-H322M) was 3000 nM, the activity at 10 µM (HCC-2998; HCC 2998, read-out: Growth percent) was 15.9% and the GI50 (NCI-H226; NCI-H226) was 1930 nM. The activity at 10 µM (HOP-62; HOP-62, read-out: Growth percent) was 26.4%, the GI50 (Prostate Cancer panel; read-out: GI50 Mean) was 570 nM and the GI50 (OVCAR-5; OVCAR-5) was 1820 nM. For the same molecule, the GI50 (CNS Cancer panel; read-out: GI50 Mean) was 940 nM, the activity at 10 µM (NCI/ADR-RES) was 91.6% and the GI50 (SW-620 [1]; SW-620) was 1180 nM. For the same molecule, the activity at 10 µM ([2]; 60 cell) was 11.9%, the activity at 10 µM (RXF 393; RXF 393, read-out: Growth percent) was -13.3% and the activity at 10 µM (SF-295; SF-295, read-out: Growth percent) was 58.1%. It also gave an activity at 10 µM (MDA-MB-231/ATCC; MDA-MB-231, read-out: Growth percent) of -2.41%, a GI50 (ACHN) of 14.6 µM and an activity at 10 µM (MDA-MB-435; MDA-MB-435, read-out: Growth percent) of -19.7%. The GI50 (HS 578T; Hs-578T) was 1230 nM, the activity at 10 µM (COLO 205; COLO 205, read-out: Growth percent) was -93.7% and the GI50 (T-47D) was 303 nM. The GI50 (NCI-H23; NCI-H23) was 1220 nM, the GI50 (SNB-75; SNB-75) was 221 nM and the GI50 (SN12C) was 467 nM. It also gave an activity at 10 µM (MDA-MB-468; MDA-MB-468, read-out: Growth percent) of -63.9%, a GI50 (SNB-19; SNB-19) of 397 nM and an activity at 10 µM (BT-549; BT-549, read-out: Growth percent) of -1.04%. It also gave an activity at 10 µM (HL-60(TB); HL-60, read-out: Growth percent) of -63.5%, a GI50 (DU-145; DU-145) of 763 nM and a GI50 (SF-268; SF-268) of 634 nM. For the same molecule, the GI50 (MDA-MB231ATCC) was 370 nM, the activity at 10 µM (SW-620 [3]; SW-620, read-out: Growth percent) was 29.4% and the activity at 10 µM (HCT-116; HCT-116, read-out: Growth percent) was 8.03%. The GI50 (SK-MEL-2; SK-MEL-2) was 279 nM, the GI50 (M14; M14) was 1790 nM and the GI50 ([4]; read-out: GI50 Mean, mean over all 60 human cancer cell lines) was 3520 nM.
